The pIC50 is −log10 of the IC50, conventionally taken in molar units.

For 26 compounds, IC50 results are on record in patent US20250002475A1 (EPICS THERAPEUTICS, priority 2023, published 2025).

One experiment relates to Kasumi-1 cells. The experiment can be described thus: Kasumi-1 cellular viability assay (ATP-Lite, 72 h). Format: cell-based. The following applies: Homo sapiens, ATP-Lite luminescence, % viability relative to DMSO. In a few lines:
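Viability was read by ATP-Lite One Step luminescence after 72 h compound treatment at 37 °C/5% CO2, normalised to DMSO control, with IC50 fitted from concentration-response. Cells were Kasumi-1 (AML FAB M2) at 15000 per well in RPMI-1640/10% FBS, 0.1% DMSO final.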

Experiment [1] deals with T1, recombinant METTL3/METTL14 complex (Homo sapiens, UniProt Q86U44).
T1 construct: purchased Active Motif 311970; host or cells: Sf9 cells
T1 sequence (Q86U44 whole entry): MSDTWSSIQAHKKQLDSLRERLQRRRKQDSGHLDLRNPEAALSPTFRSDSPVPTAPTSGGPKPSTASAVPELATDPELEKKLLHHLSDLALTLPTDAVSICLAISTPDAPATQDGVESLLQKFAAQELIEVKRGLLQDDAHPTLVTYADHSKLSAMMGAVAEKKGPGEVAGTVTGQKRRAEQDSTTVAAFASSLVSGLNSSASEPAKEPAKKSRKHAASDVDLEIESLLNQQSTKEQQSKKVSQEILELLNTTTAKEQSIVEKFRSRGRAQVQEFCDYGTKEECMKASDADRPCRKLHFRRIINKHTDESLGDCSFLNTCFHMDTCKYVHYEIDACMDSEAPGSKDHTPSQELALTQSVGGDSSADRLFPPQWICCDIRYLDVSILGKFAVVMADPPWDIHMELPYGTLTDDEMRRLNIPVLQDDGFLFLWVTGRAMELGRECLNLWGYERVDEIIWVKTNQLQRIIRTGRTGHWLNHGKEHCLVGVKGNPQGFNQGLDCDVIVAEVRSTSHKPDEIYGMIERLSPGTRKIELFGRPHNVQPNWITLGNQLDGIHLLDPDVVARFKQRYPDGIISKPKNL
T1 sequence (Q9HCE5 whole entry partner): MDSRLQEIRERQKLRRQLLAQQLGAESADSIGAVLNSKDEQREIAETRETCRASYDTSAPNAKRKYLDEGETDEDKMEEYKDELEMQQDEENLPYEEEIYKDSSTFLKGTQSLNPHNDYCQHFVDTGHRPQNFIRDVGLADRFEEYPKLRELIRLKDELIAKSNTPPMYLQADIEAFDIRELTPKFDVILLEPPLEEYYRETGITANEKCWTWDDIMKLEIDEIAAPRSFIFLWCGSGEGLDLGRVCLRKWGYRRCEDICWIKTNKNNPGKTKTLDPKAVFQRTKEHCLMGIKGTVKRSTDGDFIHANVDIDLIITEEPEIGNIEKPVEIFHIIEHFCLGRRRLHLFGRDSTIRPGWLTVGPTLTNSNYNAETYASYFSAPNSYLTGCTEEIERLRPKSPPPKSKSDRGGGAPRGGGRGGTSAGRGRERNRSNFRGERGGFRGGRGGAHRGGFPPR
The experiment can be described thus: METTL3/14 Scintillation Proximity Assay (SPA), RNA methyltransferase activity. Format: biochemical. As to conditions: 5.31 nM METTL3/14 complex, 250 nM RNA substrate, 1 μM 3H-SAM, 90 min; for compounds marked * best of the two separated forms. Background: SPA uses beads or plates that emit light when radiolabelled molecules are held near them.

The next experiment has as its system Caov-3 cells. The experiment can be described thus: Caov-3 cellular viability assay (ATP-Lite, 72 h). Format: cell-based. The following applies: Homo sapiens, ATP-Lite luminescence, % viability relative to DMSO. In a few lines:
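IC50 values come from concentration-response fits of luminescent ATP content (ATP-Lite One Step), normalised as % viability versus DMSO. Compound exposure was 72 h at 37 °C in RPMI-1640/10% FBS with 0.1% final DMSO. Wells held 10000 cells each.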

pIC50: −log10 of the molar value.

Take `c1ncc(C2CC2)cc1-c1cn(C2(c3ccc(N4CCC[C@@H](NCC5CCC5)C4)cn3)COC2)nn1` [Compound 306, (R)-N-(cyclobutylmethyl)-1-(6-(3-(4-(5-cyclopropylpyridin-3-yl)-1H-1,2,3-triazol-1-yl)oxetan-3-yl)pyridin-3-yl)piperidin-3-amine]: the values for the negative-log IC50 (pIC50) (with Kasumi-1 cells; in experiment [1]; in the experiment with Caov-3 cells) were at least 6.30, at least 7.30 and at least 6.30, respectively.
Regarding `CC(n1cc(-c2cncc(N3CC4(CC4)C3)n2)nn1)n1ccc(N2CCC[C@@H](NCC3CC3)C2)cc1=O` (single isomer, unassigned) [Compound 247], the pIC50 in the experiment with Kasumi-1 cells is at least 6.30; in experiment [1], at least 7.30; in the experiment with Caov-3 cells, at least 6.30.
`COc1cc(-c2cn(C(C)c3ccc(N4CCC[C@@H](NCC5CCC5)C4)nn3)nn2)c2cn[nH]c2c1` (single isomer, unassigned) [Compound 037]: the negative logarithm of the IC50 (pIC50) is at least 6.30 with Kasumi-1 cells, at least 7.30 in experiment [1] and at least 6.30 in the experiment on Caov-3 cells.
With `CN(C)c1cncc(-c2cn(Cc3ccc(N4CCC[C@@H](NCC5CCC5)C4)cc3)nn2)c1` [Compound 140], the negative logarithm of the IC50 (pIC50) with Kasumi-1 cells was at least 6.30; in experiment [1] it was at least 7.30; with Caov-3 cells it was at least 6.30.
Take `c1cc(C2(n3cc(-c4cncc(N5CCCC5)n4)nn3)COC2)ccc1N1CCC[C@@H](NCC2CCC2)C1` [Compound 301, (R)-N-(cyclobutylmethyl)-1-(4-(3-(4-(6-(pyrrolidin-1-yl)pyrazin-2-yl)-1H-1,2,3-triazol-1-yl)oxetan-3-yl)phenyl)piperidin-3-amine]: the negative logarithm of the IC50 (pIC50) with Kasumi-1 cells was at least 6.30; in experiment [1] it was at least 7.30; with Caov-3 cells it was at least 6.30.
As to `CC(c1ccc(N2CCC[C@@H](NCC3CCC3)C2)cc1)n1cc(-c2cncc(N(C)C)c2)nn1` (stereo partly drawn) [Compound 189, 5-(1-(1-(4-((R)3-((cyclobutylmethyl)amino)piperidin-1-yl)phenyl)ethyl)-1H-1,2,3-triazol-4-yl)-N,N-dimethylpyridin-3-amine], the pIC50 with Kasumi-1 cells was at least 6.30; in experiment [1] it was at least 7.30; in the experiment with Caov-3 cells, at least 6.30.
Consider `CC(c1ccc(N2CCC[C@@H](NCC3(C)CC3)C2)nn1)n1cnc(-c2cncc(N3CCCC3)n2)c1` (single isomer, unassigned) [Compound 348], for which the pIC50 in the experiment on Kasumi-1 cells is at least 6.30; in experiment [1], at least 7.30; with Caov-3 cells it was at least 6.30.
For the compound `CC(n1cnc(-c2cncc(N3CCCC3)n2)c1)n1ccc(N2CCC[C@@H](NCC3CC3)C2)cc1=O` (single isomer, unassigned) [Compound 226], the pIC50 with Kasumi-1 cells was at least 6.30; in experiment [1], at least 7.30; with Caov-3 cells it was at least 6.30.
Turning to `CC(c1ccc(N2CCC[C@@H](NCC3CC3)C2)cn1)n1cc(-c2cncc(N3CCCC3)n2)nn1` (single isomer, unassigned) [Compound 259], the pIC50 was at least 6.30 in the experiment with Kasumi-1 cells, at least 7.30 in experiment [1] and at least 6.30 in the experiment with Caov-3 cells.
As for `CC(n1cc(-c2cncc(OCC(F)(F)F)c2)nn1)n1ccc(N2CCC[C@@H](NCC3CCC3)C2)cc1=O` (single isomer, unassigned) [Compound 200], the pIC50 in the experiment on Kasumi-1 cells was 5.30 to 6.30; in experiment [1], at least 7.30; in the experiment with Caov-3 cells, 5.30 to 6.30.
For `Clc1cc(-c2cn(Cc3ccc(N4CCC[C@@H](NCC5CCC5)C4)nn3)nn2)c2cn[nH]c2c1` [Compound 057, (R)-1-(6-((4-(6-chloro-1H-indazol-4-yl)-1H-1,2,3-triazol-1-yl)methyl)pyridazin-3-yl)-N-(cyclobutylmethyl)piperidin-3-amine], the negative-log IC50 (pIC50) in the experiment with Kasumi-1 cells was 5.30 to 6.30; in experiment [1], at least 7.30; with Caov-3 cells, 5.30 to 6.30.
On to `O=C(Nc1cc(=O)n2ccccc2n1)C1(c2ccc(N3CCC[C@@H](NCC4CC(F)(F)C4)C3)cn2)COC1` [Compound 338, (R)-3-(5-(3-(((3,3-difluorocyclobutyl)methyl)amino)piperidin-1-yl)pyridin-2-yl)-N-(4-oxo-4H-pyrido[1,2-a]pyrimidin-2-yl)oxetane-3-carboxamide], for which the pIC50 was at least 6.30 in the experiment on Kasumi-1 cells, at least 7.30 in experiment [1] and at least 6.30 in the experiment on Caov-3 cells.
As to `COc1cc(-c2cn(Cc3ccc(N4CCCC(NC5CC56CCC6)C4)nn3)nn2)c2cn[nH]c2c1` (stereo not drawn) [Compound 025, 1-(6-((4-(6-methoxy-1H-indazol-4-yl)-1H-1,2,3-triazol-1-yl)methyl)pyridazin-3-yl)-N-(spiro[2.3]hexan-1-yl)piperidin-3-amine], the results for the negative-log IC50 (pIC50) (in the experiment with Kasumi-1 cells; in experiment [1]; in the experiment on Caov-3 cells) were 5.30 to 6.30, at least 7.30 and at least 6.30, respectively.
Take `CC(c1nnc(-c2cncc(N3CCCC3)n2)s1)n1ccc(N2CCC[C@@H](NCC3CC3)C2)cc1=O` (stereo partly drawn) [Compound 228, 4-((R)-3-((cyclopropylmethyl)amino)piperidin-1-yl)-1-(1-(5-(6-(pyrrolidin-1-yl)pyrazin-2-yl)-1,3,4-thiadiazol-2-yl)ethyl)pyridin-2(1H)-one]: the pIC50 was at least 6.30 in the experiment with Kasumi-1 cells, at least 7.30 in experiment [1] and at least 6.30 with Caov-3 cells.
As to `CC(n1cnc(-c2cncc(N(C)C)n2)c1)n1ccc(N2CCC[C@@H](NCC3CC3)C2)cc1=O` (single isomer, unassigned) [Compound 229], the values for the pIC50 (with Kasumi-1 cells; in experiment [1]; in the experiment with Caov-3 cells) were at least 6.30, at least 7.30 and at least 6.30, respectively.
As for `CC(c1ccc(N2CCC[C@@H](NCC3CCC3)C2)cn1)c1cnc(-c2cncc(N(C)C)c2)s1` (single isomer, unassigned) [Compound 169], the figures for the pIC50 (in the experiment with Kasumi-1 cells; in experiment [1]; in the experiment with Caov-3 cells) were at least 6.30, at least 7.30 and at least 6.30, respectively.
Turning to `COc1cc(-c2cn(Cc3cnc(N4CCCC(NCC5CCC5)C4)cn3)nn2)c2cn[nH]c2c1` (stereo not drawn) [Compound 047, N-(cyclobutylmethyl)-1-(5-((4-(6-methoxy-1H-indazol-4-yl)-1H-1,2,3-triazol-1-yl)methyl)pyrazin-2-yl)piperidin-3-amine], the negative-log IC50 (pIC50) with Kasumi-1 cells was 5.30 to 6.30; in experiment [1] it was at least 7.30; in the experiment with Caov-3 cells, below 5.30.
In the same order, the values of `COc1cc(-c2cn(Cc3ccc(N4CCC[C@@H](NCC5CCC5)C4)nn3)nn2)c2cn[nH]c2c1` [Compound 001, (R)-N-(cyclobutylmethyl)-1-(6-((4-(6-methoxy-1H-indazol-4-yl)-1H-1,2,3-triazol-1-yl)methyl)pyridazin-3-yl)piperidin-3-amine] are 5.30 to 6.30, at least 7.30 and at least 6.30.
The matching figures for `CC(C(=O)Nc1cncc(N2CCCC2)n1)c1ccc(N2CCC[C@@H](NCC3CCC3)C2)nn1` (stereo partly drawn) [Compound 279, 2-(6-((R)-3-((cyclobutylmethyl)amino)piperidin-1-yl)pyridazin-3-yl)-N-(6-(pyrrolidin-1-yl)pyrazin-2-yl)propanamide]: 5.30 to 6.30, at least 7.30 and 5.30 to 6.30.
Turning to `CC(c1nnc(-c2cncc(N(C)C)n2)s1)n1ccc(N2CCC[C@@H](NCC3CC3)C2)cc1=O` (stereo partly drawn) [Compound 231, 4-((R)-3-((cyclopropylmethyl)amino)piperidin-1-yl)-1-(1-(5-(6-(dimethylamino)pyrazin-2-yl)-1,3,4-thiadiazol-2-yl)ethyl)pyridin-2(1H)-one], the negative-log IC50 (pIC50) with Kasumi-1 cells was at least 6.30; in experiment [1], at least 7.30; with Caov-3 cells, at least 6.30.
As for `CN(C)c1cncc(-c2cn(C3(c4ccc(N5CCC[C@@H](NCC6CC6)C5)cn4)COC3)nn2)n1` [Compound 192, (R)-6-(1-(3-(5-(3-((cyclopropylmethyl)amino)piperidin-1-yl)pyridin-2-yl)oxetan-3-yl)-1H-1,2,3-triazol-4-yl)-N,N-dimethylpyrazin-2-amine], the negative logarithm of the IC50 (pIC50) in the experiment with Kasumi-1 cells was at least 6.30; in experiment [1], at least 7.30; in the experiment with Caov-3 cells, at least 6.30.
As for `COc1cc(-c2cn(Cn3ccc(N4CCCC(NCC5CCC5)C4)cc3=O)nn2)c2cn[nH]c2c1` (stereo not drawn) [Compound 027, 4-(3-((cyclobutylmethyl)amino)piperidin-1-yl)-1-((4-(6-methoxy-1H-indazol-4-yl)-1H-1,2,3-triazol-1-yl)methyl)pyridin-2(1H)-one], the pIC50 was at least 6.30 in the experiment on Kasumi-1 cells, at least 7.30 in experiment [1] and at least 6.30 in the experiment with Caov-3 cells.
For the compound `CN(C)c1cncc(-c2cn(C3(c4ccc(N5CCC[C@@H](NCC6CCC6)C5)cc4)COC3)nn2)c1` [Compound 148, (R)-5-(1-(3-(4-(3-((cyclobutylmethyl)amino)piperidin-1-yl)phenyl)oxetan-3-yl)-1H-1,2,3-triazol-4-yl)-N,N-dimethylpyridin-3-amine], the pIC50 in the experiment on Kasumi-1 cells was at least 6.30; in experiment [1], at least 7.30; in the experiment on Caov-3 cells, at least 6.30.
As for `CCOc1cncc(-c2cn(C(C)c3ccc(N4CCC[C@@H](NCC5CCC5)C4)nn3)nn2)c1` (single isomer, unassigned) [Compound 187], the pIC50 is 5.30 to 6.30 in the experiment with Kasumi-1 cells, at least 7.30 in experiment [1] and at least 6.30 in the experiment with Caov-3 cells.
For `CC(c1nnc(-c2cncc(N(C)C)c2)s1)n1ccc(N2CCC[C@@H](NCC3CCC3)C2)cc1=O` (stereo partly drawn) [Compound 171, 4-((R)-3-((cyclobutylmethyl)amino)piperidin-1-yl)-1-(1-(5-(5-(dimethylamino)pyridin-3-yl)-1,3,4-thiadiazol-2-yl)ethyl)pyridin-2(1H)-one], the negative logarithm of the IC50 (pIC50) is at least 6.30 in the experiment with Kasumi-1 cells, at least 7.30 in experiment [1] and at least 6.30 with Caov-3 cells.
With `CC(n1cc(-c2cncc(N3CCCC3)c2)nn1)n1ccc(N2CCC[C@@H](NCC3CCC3)C2)cc1=O` (single isomer, unassigned) [Compound 160], the pIC50 is at least 6.30 in the experiment on Kasumi-1 cells, at least 7.30 in experiment [1] and at least 6.30 in the experiment with Caov-3 cells.
